Here are results for 10 compounds from patent US6413953B1, “Pt(IV) antitumor agent” (AnorMED Inc., priority 1999, dated 2002).

Data set [1] can be described thus: Aqueous solubility at ambient conditions. The data set is classed as physicochemical. Particulars: for Aqueous Solubility / Ratio to Solubility of bis-butyrato-ammine-(cyclohexylamine)dichloro platinum (IV) / Ratio to Solubility of cis-ammine(2-methylpyridine)Dichloroplatinum (II) / Ratio to Solubility of cisplatin: ambient conditions.
Data set [2] concerns CH1 tumor containing xenografts. The data set can be described thus: In vivo growth delay in CH1 tumor xenografts. Particulars: administered at maximum tolerated dose. The text has this:
This is in contrast to the growth delay of 0.6 days, achieved with compound E (FIG. 1).

Another data set concerns 41MR. Briefly: Cell proliferation IC50, human cancer cell lines in culture. Conditions: for (IC50-Pt(IV)/IC50-Pt(II)): 41MR cell line, vs cis-amminedichloro(2-methylpyridine)platinum(II); for resistance factor: 41MR vs 41M, in brackets; for IC50: read-out: IC50 (50% decrease in cell proliferation), 41MR cisplatin-resistant cell line. It counts as cell-based. The procedure: (§1) Compounds were tested against human cancer cell lines grown in cell culture according to established procedures (described by Holford, et al., British J. Cancer 1998 77(3) 366-373).

For a further data set, the system named is CH1. The data set is described as above. Particulars: CH1 cell line; for (IC50-Pt(IV)/IC50-Pt(II)): vs cis-amminedichloro(2-methylpyridine)platinum(II); for IC50: read-out: IC50 (50% decrease in cell proliferation). The data set is classed as cell-based. How it is done:
as §1

Another data set relates to 41M. The data set is described as above. The data set is classed as cell-based. Particulars: 41M cell line; for (IC50-Pt(IV)/IC50-Pt(II)): vs cis-amminedichloro(2-methylpyridine)platinum(II); for IC50: read-out: IC50 (50% decrease in cell proliferation). How it is done:
as §1

Another data set relates to A2780. The data set is described as above. It counts as cell-based. Conditions: A2780 cell line; for (IC50-Pt(IV)/IC50-Pt(II)): vs cis-amminedichloro(2-methylpyridine)platinum(II); for IC50: read-out: IC50 (50% decrease in cell proliferation). The procedure: as §1
Another data set deals with 2780R. The data set is described as above. It counts as cell-based. Particulars: for resistance factor: 2780R vs A2780, in brackets; for (IC50-Pt(IV)/IC50-Pt(II)): A2780R cell line, vs cis-amminedichloro(2-methylpyridine)platinum(II); for IC50: read-out: IC50 (50% decrease in cell proliferation), 2780R cisplatin-resistant cell line. How it is done:
as §1

For the next data set, the system named is CH1R. Described as above. It counts as cell-based. Particulars: for (IC50-Pt(IV)/IC50-Pt(II)): CH1R cell line, vs cis-amminedichloro(2-methylpyridine)platinum(II); for resistance factor: CH1R vs CH1, in brackets; for IC50: read-out: IC50 (50% decrease in cell proliferation), CH1R cisplatin-resistant cell line. How it is done: as §1
For data set [3] the following is noted: background statement; cited from earlier work.
[4] abbreviates: solubility ratio to cis-amminedichloro(2-methylpyridine)platinum(II).

As a reminder, the Aqueous Solubility is the dissolved amount per volume that the medium holds.

Read-outs that look alike come from different tables or passages of the source.

Turning to `CC(=O)[O][Pt]([OH])([Cl])[O]C(C)=O.Cc1ccccn1.N` [Compound E], in [1], the “(SolPt(IV)/SolPt(II))” value was found to be 21.4, the “Aqueous Solubility” value was 15 mg/mL, the “Ratio to Solubility of bis-butyrato-ammine-(cyclohexylamine)dichloro platinum (IV)” value (“Ratio to Solubility … (IV)” below) is 75 and the “Ratio to Solubility of cis-ammine(2-methylpyridine)Dichloroplatinum (II)” value (shortened to “Ratio to Solubility … (II)”) was 21.4. Further, the “Ratio to Solubility of cisplatin” value in data set [1] is reported as 15. The growth delay in data set [2] was 0.6 days. Moreover, in the data set with 41MR, the “(IC50-Pt(IV)/IC50-Pt(II))” value stood at 13, the resistance factor result is “(1)” and the IC50 is 78 µM. Further, in the data set on CH1, the “(IC50-Pt(IV)/IC50-Pt(II))” value was determined as 8.2 and the IC50 amounted to 18 µM. Further, in the data set on 41M, the “(IC50-Pt(IV)/IC50-Pt(II))” value amounted to 13.9 and the IC50 turned out to be 78 µM. For the same compound, in the data set with A2780, the “(IC50-Pt(IV)/IC50-Pt(II))” value was 4.2 and the IC50 was determined as 10.5 µM. In the data set with 2780R, the resistance factor entry was “(5.9)”, the “(IC50-Pt(IV)/IC50-Pt(II))” value is 5.2 and the IC50 came out at 62 µM. Further, in the data set on CH1R, the “(IC50-Pt(IV)/IC50-Pt(II))” value was determined as 21.9, the resistance factor result is reported as “(2.6)” and the IC50 stood at 46 µM.

For the compound `CC(=O)[O][Pt]([Cl])([O]C(C)=O)[O]C(C)=O.Cc1ccccn1.N` [Compound D], the “Aqueous Solubility” value in data set [1] came out at 80 mg/mL. The IC50 with 41MR was greater than 100 µM; in the data set on CH1, 46 µM; in the data set on 41M it was greater than 100 µM; with A2780, 47 µM; in the data set with 2780R, greater than 100 µM; in the data set on CH1R it was 88 µM. Further, the resistance factor entry in the data set on CH1R is “(1.9)”.

Take `CC(=O)[O][Pt]([NH2])([Cl])([Cl])([NH]C1CCCCC1)[O]C(C)=O` [Compound F, bis-acetatoammine(cyclohexylamine)dichloroplatinum(IV), reference compound]: in data set [1], the “Aqueous Solubility” value was less than 1 mg/mL, the “Ratio to Solubility … (IV)” value is reported as less than 5, the “Ratio to Solubility … (II)” value is reported as less than 1.4 and the “Ratio to Solubility of cisplatin” value was less than 1. In addition, in the data set on 41MR, the resistance factor entry is reported as “(1.2)” and the IC50 was 0.6 µM. In the data set with 41M, the IC50 was determined as 0.5 µM. In the data set on A2780, the IC50 was found to be 0.4 µM. Besides, in the data set on 2780R, the resistance factor result is reported as “(4.6)” and the IC50 amounted to 1.84 µM. Further, in the data set on CH1R, the resistance factor entry is “(4)” and the IC50 was determined as 0.4 µM.

In the case of `CC(=O)[O][Pt]([OH])([Cl])[O]C(C)=O.Cc1ccccn1.N` [Compound C], in [1], the “Aqueous Solubility” value was found to be 20 mg/mL, the “Ratio to Solubility … (IV)” value stood at 100, the “Ratio to Solubility … (II)” value turned out to be 28.6 and the “Ratio to Solubility of cisplatin” value amounted to 20. Further, the “(SolPt(IV)/SolPt(II))” value in data set [1] (setting [4]) is 28.6. Moreover, in the data set with 41MR, the “(IC50-Pt(IV)/IC50-Pt(II))” value is listed as 4.3, the resistance factor result is given as “(0.96)” and the IC50 came to 26 µM. Further, in the data set on CH1, the “(IC50-Pt(IV)/IC50-Pt(II))” value is reported as 3.9 and the IC50 was 8.6 µM. Besides, in the data set on 41M, the “(IC50-Pt(IV)/IC50-Pt(II))” value came to 4.8 and the IC50 worked out at 27 µM. Further, in the data set with A2780, the “(IC50-Pt(IV)/IC50-Pt(II))” value was 3.4 and the IC50 turned out to be 8.6 µM. Also, in the data set with 2780R, the resistance factor entry is “(5.2)”, the “(IC50-Pt(IV)/IC50-Pt(II))” value was found to be 3.8 and the IC50 was determined as 45 µM. In the data set on CH1R, the “(IC50-Pt(IV)/IC50-Pt(II))” value came out at 8.1, the resistance factor result was “(1.8)” and the IC50 came to 17 µM.

With `CCCC(=O)[O][Pt]([NH2])([Cl])([Cl])([NH]C1CCCCC1)[O]C(=O)CCC` [Compound G, bis-butyratoammine(cyclohexylamine)dichloroplatinum(IV), reference compound], the resistance factor entry is “(0.67)” with 41MR and “(3.7)” in the data set on CH1R. Besides, the IC50 with 41MR was found to be 0.048 µM; with CH1, 0.0066 µM; in the data set on 41M, 0.072 µM; with CH1R it was 0.024 µM.

Consider `Cc1cccc[n+]1[Pt-2]([NH3+])([OH])([OH])([Cl])[Cl]` [Compound B], for which, in data set [1], the “Aqueous Solubility” value is given as “˜5 mg/ml”, the “Ratio to Solubility … (IV)” value is 25, the “Ratio to Solubility … (II)” value was determined as 7.1 and the “Ratio to Solubility of cisplatin” value worked out at 5. Further, the “(SolPt(IV)/SolPt(II))” value in data set [1] (setting [4]) is listed as 7.1. In the data set with 41MR, the “(IC50-Pt(IV)/IC50-Pt(II))” value worked out at 3.2, the resistance factor entry was “(1.9)” and the IC50 stood at 19 µM. Further, in the data set with CH1, the “(IC50-Pt(IV)/IC50-Pt(II))” value was determined as 1.5 and the IC50 came out at 3.4 µM. Also, in the data set with 41M, the “(IC50-Pt(IV)/IC50-Pt(II))” value amounted to 1.8 and the IC50 amounted to 10 µM. Moreover, in the data set with A2780, the “(IC50-Pt(IV)/IC50-Pt(II))” value was determined as 1.8 and the IC50 came out at 4.5 µM. Besides, in the data set on 2780R, the resistance factor result was “(8)”, the “(IC50-Pt(IV)/IC50-Pt(II))” value is 3.0 and the IC50 was 36 µM. Moreover, in the data set on CH1R, the “(IC50-Pt(IV)/IC50-Pt(II))” value is recorded as 3.5, the resistance factor entry is “(2.2)” and the IC50 was determined as 7.4 µM.

Regarding `Cc1ccccn1.N.[Cl-].[Cl-].[Pt+2]` [cis-ammine(2-methylpyridine)dichloroplatinum(II), reference compound], the “Aqueous Solubility” value in [1] stood at 0.7 mg/mL. In data set [1], the “Ratio to Solubility … (IV)” value stood at 3.5. Also, the “Ratio to Solubility … (II)” value in data set [1] is reported as 1. In addition, the “Ratio to Solubility of cisplatin” value in data set [1] came to 0.7. For the same compound, the resistance factor result in the data set with 41MR is reported as “(1.1)”; in the data set on 2780R, “(4.8)”; with CH1R, “(1)”. Further, the IC50 stood at 6 µM in the data set on 41MR; 2.2 µM in the data set with CH1; 5.6 µM with 41M; 2.5 µM in the data set with A2780; 12 µM in the data set on 2780R; 2.1 µM in the data set on CH1R.

On to `[NH2][Pt]1([NH2])[O]C(=O)C2(CCC2)C(=O)[O]1` [carboplatin, diammine[1,1-cyclobutanedicarboxylato (2-)]-O,O′-platinum(II), reference compound], for which the “Aqueous Solubility” value in data set [1] and in data set [3] was 14 mg/mL throughout. For the same compound, the “Ratio to Solubility … (IV)” value in data set [1] turned out to be 70. Moreover, the “Ratio to Solubility … (II)” value in [1] is 20. The “Ratio to Solubility of cisplatin” value in [1] turned out to be 14. Moreover, the resistance factor entry with 41MR is “(2.7)”; in the data set with 2780R, “(14.4)”; in the data set with CH1R, “(4.5)”. The IC50 came out at 8.8 µM in the data set on 41MR; 1.3 µM in the data set on CH1; 3.3 µM in the data set on 41M; 1.8 µM in the data set on A2780; 25.9 µM in the data set with 2780R; 6 µM in the data set on CH1R.

“ammine(chloro)trihydroxo(2-methylpyridine)platinum(IV) [Compound A]” displayed a growth delay in [2] of 32.8 days. For the same compound, the “(IC50-Pt(IV)/IC50-Pt(II))” value turned out to be 7.5 with 41MR; 2.7 in the data set on CH1; 4.5 in the data set with 41M; 3.8 in the data set on A2780; 3.4 in the data set on 2780R; 5.7 in the data set with CH1R. In addition, the resistance factor result is “(1.8)” with 41MR, “(4.3)” in the data set with 2780R and “(2)” in the data set on CH1R. For the same compound, the IC50 was 45 µM in the data set on 41MR; 6 µM in the data set with CH1; 25 µM in the data set on 41M; 9.5 µM with A2780; 41 µM with 2780R; 12 µM with CH1R.

In turn, `N.N.[Cl][Pt][Cl]` [cisplatin, [PtCl2(NH3)2], reference compound] yielded a growth delay in [2] of 34 days. Also, the resistance factor result was “(4.6)” in the data set on 41MR, “(15.7)” in the data set on 2780R and “(6.5)” in the data set on CH1R. Besides, the IC50 in the data set on 41MR turned out to be 1.2 µM; in the data set with CH1 it was 0.11 µM; in the data set on 41M it was 0.26 µM; in the data set with A2780 it was 0.33 µM; with 2780R, 5.2 µM; with CH1R it was 0.71 µM.
